Measurements: patent publication US20250230193A1, “CYCLIC COMPOUND HAVING SELECTIVE KRAS INHIBITORY EFFECT ON HRAS AND NRAS” (CHUGAI SEIYAKU KABUSHIKI KAISHA, priority 2022, published 2025)
Where a SMILES comes first, the peptide text is derived from it. Bridges are numbered along the chain shown (N, C = ends). [ ]: non-standard residue; d: D form. The star is where a group is joined. hPhe(3-Cl-4-CF3) = N[C@@H](CCc1ccc(C(F)(F)F)c(Cl)c1)C(=O)O; NPrPhe(4-CF3) = CCCN[C@@H](Cc1ccc(C(F)(F)F)cc1)C(=O)O; NMeGly(cPent) = CN[C@H](C(=O)O)C1CCCC1; Pro(4,4-F2) = O=C(O)[C@@H]1CC(F)(F)CN1; Hyp = O=C(O)[C@@H]1C[C@@H](O)CN1; NMeD = CN[C@@H](CC(=O)O)C(=O)O; NMeL = CN[C@@H](CC(C)C)C(=O)O; Morpholide = C1CN(*)CCO1; NMeA = CN[C@@H](C)C(=O)O; Ac5c = NC1(C(=O)O)CCCC1; Aze = O=C(O)[C@@H]1CCN1; Ac4c = NC1(C(=O)O)CCC1; Sar = CNCC(=O)O

What was measured:
[1] = molecular target: GDP-bound NRAS wild-type protein (Homo sapiens, UniProt P01111); test: Binding to NRAS by surface plasmon resonance (SPR), Single Cycle Kinetics; conditions: SPR
GDP-bound NRAS wild-type protein, sequence (P01111 whole entry): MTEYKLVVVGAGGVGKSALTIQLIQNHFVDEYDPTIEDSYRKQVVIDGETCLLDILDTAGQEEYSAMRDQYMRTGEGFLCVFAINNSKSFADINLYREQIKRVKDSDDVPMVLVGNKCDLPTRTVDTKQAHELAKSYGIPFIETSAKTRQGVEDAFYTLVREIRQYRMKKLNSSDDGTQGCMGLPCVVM

[2] = molecular target: GDP-bound HRAS wild-type protein (Homo sapiens, UniProt P01112); test: Binding to HRAS by surface plasmon resonance (SPR), Single Cycle Kinetics; conditions: SPR
GDP-bound HRAS wild-type protein, sequence (P01112 whole entry): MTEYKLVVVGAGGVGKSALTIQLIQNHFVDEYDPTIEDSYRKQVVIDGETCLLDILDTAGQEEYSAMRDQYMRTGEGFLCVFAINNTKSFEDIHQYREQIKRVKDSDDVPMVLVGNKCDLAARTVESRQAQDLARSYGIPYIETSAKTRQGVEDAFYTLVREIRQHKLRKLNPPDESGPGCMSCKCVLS

[3] = KD ratio, GDP-bound NRAS wild-type vs GDP-bound KRAS wild-type
[4] = KD ratio, GDP-bound HRAS wild-type vs GDP-bound KRAS wild-type

CCCN1C(=O)[C@@H]2CCN2C(=O)[C@H](C)N(C)C(=O)[C@H]([C@@H](C)CC)NC(=O)[C@H](CC(C)C)N(C)C(=O)C[C@@H](C(=O)N(C)C)NC(=O)[C@H](C2CCCC2)N(C)C(=O)C2(CCC2)NC(=O)[C@@H]2CC(F)(F)CN2C(=O)[C@H](CCc2ccc(C(F)(F)F)c(Cl)c2)NC(=O)CN(C)C(=O)[C@@H]1Cc1ccc(C(F)(F)F)cc1 [PP0382] ([NMeL]I[NMeA][Aze][NPrPhe(4-CF3)][Sar][hPhe(3-Cl-4-CF3)][Pro(4,4-F2)][Ac4c][NMeGly(cPent)]D-NMe2; lactam N-11) was tested, and the “NRAS/KRAS (ratio of KD for GDP-bound NRAS wild-type to KD for KRAS)” value [1] was “C (A compound having a KD ratio of 0.1 or more and less than 3 is denoted as C)” and the “HRAS/KRAS (ratio of KD for GDP-bound HRAS wild-type to KD for KRAS)” value [2] was “B (a compound having 3 or more and less than 10 is denoted as B)”.

In the case of CC[C@H](C)[C@@H]1NC(=O)[C@H](CC(C)C)N(C)C(=O)C[C@@H](C(=O)N2CCOCC2)N(C)C(=O)[C@H](C2CCCC2)N(C)C(=O)C2(CCCC2)NC(=O)[C@@H]2CCCN2C(=O)[C@H](CCc2ccc(C(F)(F)F)c(Cl)c2)NC(=O)CN(C)C(=O)[C@H](Cc2ccc(C)cc2)N2CCCCC[C@@H](C2=O)N(C)C(=O)CN(C)C1=O [PP0317], the “NRAS/KRAS (ratio of KD for GDP-bound NRAS wild-type to KD for KRAS)” value [1] is reported as “B (a compound having 3 or more and less than 10 is denoted as B)” and the “HRAS/KRAS (ratio of KD for GDP-bound HRAS wild-type to KD for KRAS)” value [2] is reported as “B (a compound having 3 or more and less than 10 is denoted as B)”.

With CCCN1C(=O)[C@@H]2CCN2C(=O)CN(C)C(=O)[C@H]([C@@H](C)CC)NC(=O)[C@H](CC(C)C)N(C)C(=O)C[C@@H](C(=O)N2CCOCC2)NC(=O)[C@H](C2CCCC2)N(C)C(=O)C2(CCC2)NC(=O)[C@@H]2CC(F)(F)CN2C(=O)[C@H](CCc2ccc(C(F)(F)F)c(Cl)c2)NC(=O)CN(C)C(=O)[C@@H]1Cc1ccc(C(F)(F)F)cc1 [PP0352] ([NMeL]I[Sar][Aze][NPrPhe(4-CF3)][Sar][hPhe(3-Cl-4-CF3)][Pro(4,4-F2)][Ac4c][NMeGly(cPent)]D-Morpholide; lactam N-11) the “NRAS/KRAS (ratio of KD for GDP-bound NRAS wild-type to KD for KRAS)” value [1] was “C (A compound having a KD ratio of 0.1 or more and less than 3 is denoted as C)” and the “HRAS/KRAS (ratio of KD for GDP-bound HRAS wild-type to KD for KRAS)” value [2] was “B (a compound having 3 or more and less than 10 is denoted as B)”.

With CCO[C@@H]1C[C@H]2C(=O)NC3(CC(F)(F)C3)C(=O)N(C)[C@@H](C3CCCC3)C(=O)N3CCC[C@@H]3CC(=O)N(C)[C@@H](CC)C(=O)N[C@@H]([C@@H](C)CC)C(=O)N(C)CC(=O)N(C)[C@H]3C/C=C\CCN(C3=O)[C@@H](Cc3ccc(C(F)(F)F)cc3)C(=O)N(C)CC(=O)N[C@@H](CCc3cc(F)c(C(F)(F)F)c(F)c3)C(=O)N2C1 [PP1609] the “NRAS/KRAS (ratio of KD value for NRAS to KD value for KRAS)” value [1, 3] was “A (a compound having 10 or more and less than 20 is denoted as A)” and the “HRAS/KRAS (ratio of KD value for HRAS to KD value for KRAS)” value [2, 4] was “A (a compound having 10 or more and less than 20 is denoted as A)”.

CC[C@H](C)[C@@H]1NC(=O)[C@H](COC)N(C)C(=O)C[C@@H](C(=O)N2CCOCC2)N(C)C(=O)[C@H](C2CCCC2)N(C)C(=O)C2(CCCC2)NC(=O)[C@@H]2CC(F)(F)CN2C(=O)[C@H](CCc2cc(F)c(C(F)(F)F)c(F)c2)NC(=O)CN(C)C(=O)[C@H](Cc2ccc(C(F)(F)F)cc2)N2CCCCC[C@@H](C2=O)N(C)C(=O)CN(C)C1=O [PP0846] was tested, and the “NRAS/KRAS (ratio of KD value with respect to NRAS to KD value with respect to KRAS)” value [1, 3] was “B (a compound having 3 or more and less than 10 is denoted as B)” and the “HRAS/KRAS (ratio of KD value with respect to HRAS to KD value with respect to KRAS)” value [2, 4] was “B (a compound having 3 or more and less than 10 is denoted as B)”.

In the case of CCCN1C(=O)CN(C)C(=O)[C@@H]2CCN2C(=O)[C@H]([C@@H](C)CC)NC(=O)[C@H](CC(C)C)N(C)C(=O)C[C@@H](C(=O)N2CCOCC2)N(C)C(=O)[C@H](C2CCCC2)N(C)C(=O)C2(CCCC2)NC(=O)[C@@H]2C[C@@H](OCC)CN2C(=O)[C@H](CCc2ccc(C(F)(F)F)c(Cl)c2)NC(=O)CN(C)C(=O)[C@@H]1Cc1ccc(C(F)(F)F)cc1 [PP0310] ([NMeL]I[Aze][Sar][NPrPhe(4-CF3)][Sar][hPhe(3-Cl-4-CF3)][Hyp](Et)[Ac5c][NMeGly(cPent)][NMeD]-Morpholide; lactam N-11), the “NRAS/KRAS (ratio of KD for GDP-bound NRAS wild-type to KD for KRAS)” value [1] is reported as “B (a compound having 3 or more and less than 10 is denoted as B)” and the “HRAS/KRAS (ratio of KD for GDP-bound HRAS wild-type to KD for KRAS)” value [2] is reported as “C (A compound having a KD ratio of 0.1 or more and less than 3 is denoted as C)”.

In the case of CCCN(C)C(=O)[C@@H]1CC(=O)N(C)[C@@H](CC2CC2)C(=O)N[C@@H]([C@@H](C)CC)C(=O)N(C)CC(=O)N(C)[C@H]2C/C=C\CCN(C2=O)[C@@H](Cc2ccc(C(F)(F)F)cc2)C(=O)N(C)CC(=O)N[C@@H](CCc2cc(F)c(C(F)(F)F)c(F)c2)C(=O)N2C[C@H](OCC)C[C@H]2C(=O)NC2(CCC2)C(=O)N(C)[C@@H](C2CCCC2)C(=O)N1C [PP1388], the “NRAS/KRAS (ratio of KD value for GDP-bound NRAS wild-type protein to KD value for KRAS)” value ([1]; KD ratio class) is reported as “A (a compound having 10 or more and less than 20 is denoted as A)” and the “HRAS/KRAS (ratio of KD value for GDP-bound HRAS wild-type protein to KD value for KRAS)” value ([2]; KD ratio class) is reported as “B (a compound having 3 or more and less than 10 is denoted as B)”.
